Experimental data reported in patent publication US20240246964A1 (Arbutus Biopharma Corporation, priority 2021, published 2024).

Biological target: human PD-L1 (Homo sapiens (Human), UniProt Q9NZQ7)
Test: T cell activation luciferase reporter cell culture system (T Cell Activation Assay)
Type: cell-based
Conditions: luciferase reporter assay; PD-L1 aAPC/CHO-K1 cells with PD-1 effector Jurkat T cells

human PD-L1, sequence (Q9NZQ7 19-290): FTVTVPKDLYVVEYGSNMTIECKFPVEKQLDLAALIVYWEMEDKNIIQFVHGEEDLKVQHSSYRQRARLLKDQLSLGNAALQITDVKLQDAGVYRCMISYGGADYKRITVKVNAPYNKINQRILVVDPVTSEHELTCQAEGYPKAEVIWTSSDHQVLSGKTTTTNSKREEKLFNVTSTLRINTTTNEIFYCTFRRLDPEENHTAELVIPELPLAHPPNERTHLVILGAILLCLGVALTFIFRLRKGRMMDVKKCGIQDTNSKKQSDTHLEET

SMILES | EC50 [nM]
COc1cc(-c2nccc(-c3cccc(-c4ccc(CNC[C@@H]5CCC(=O)N5)c(OC)n4)c3Cl)c2Cl)cc2c1CN(CCC(C)(C)O)CC2 [Cmpd 49, (S)-5-((((6-(2-chloro-3-(3-chloro-2-(2-(3-hydroxy-3-methylbutyl)-8-methoxy-1,2,3,4-tetrahydroisoquinolin-6-yl)pyridin-4-yl)phenyl)-2-methoxypyridin-3-yl)methyl)amino)methyl)pyrrolidin-2-one] | 37
COc1nc(-c2cccc(-c3ccnc(-c4cnc5c(CNC[C@@H]6CCC(=O)N6)cn(C)c5c4)c3Cl)c2Cl)ccc1CNC[C@@H]1CCC(=O)N1 [Cmpd 13, (S)-5-((((6-(2-chloro-3-(3-chloro-2-(1-methyl-3-(((((S)-5-oxopyrrolidin-2-yl)methyl)amino)methyl)-1H-pyrrolo[3,2-b]pyridin-6-yl)pyridin-4-yl)phenyl)-2-methoxypyridin-3-yl)methyl)amino)methyl)pyrrolidin-2-one] | 77.7
COc1cc(-c2nccc(-c3cccc(-c4ccc(CNC5CCN(C(C)=O)CC5)c(OC)n4)c3Cl)c2Cl)ccc1CN1CCC[C@@H](O)C1 [Example 489, (R)-1-(4-(((6-(2-Chloro-3-(3-chloro-2-(4-((3-hydroxypiperidin-1-yl)methyl)-3-methoxyphenyl)pyridin-4-yl)phenyl)-2-methoxypyridin-3-yl)methyl)amino)piperidin-1-yl)ethan-1-one] | 28.5
COc1cc(-c2ncnc(-c3cccc(-c4ccc(CNC5CCOCC5)c(OC)n4)c3Cl)c2OC)ccc1CNC1CCOCC1 [Example 734, N-((6-(2-Chloro-3-(5-methoxy-6-(3-methoxy-4-(((tetrahydro-2H-pyran-4-yl)amino)methyl)phenyl)pyrimidin-4-yl)phenyl)-2-methoxypyridin-3-yl)methyl)tetrahydro-2H-pyran-4-amine] | ≥ 10000
COc1cc(-c2nccc(-c3cccc(-c4ccc(CNC[C@@H]5CCC(=O)N5)c(OC)n4)c3Cl)c2Cl)ccc1CNC1(C(=O)O)CC1 [Cmpd 121, (S)-1-((4-(3-chloro-4-(2-chloro-3-(6-methoxy-5-((((5-oxopyrrolidin-2-yl)methyl)amino)methyl)pyridin-2-yl)phenyl)pyridin-2-yl)-2-methoxybenzyl)amino)cyclopropane-1-carboxylic acid] | 131
COc1cc(-c2nccc(-c3cccc(NC(=O)c4ccc(CN5CC6(COC6)C5)cn4)c3Cl)c2Cl)ccc1CN1CC2(COC2)C1 [Example 701, 5-((2-Oxa-6-azaspiro[3.3]heptan-6-yl)methyl)-N-(3-(2-(4-((2-oxa-6-azaspiro[3.3]heptan-6-yl)methyl)-3-methoxyphenyl)-3-chloropyridin-4-yl)-2-chlorophenyl)picolinamide] | 410
COc1cc(-c2nccc(-c3cccc(-c4ccc(CNC5CCN(c6ccccn6)CC5)c(OC)n4)c3Cl)c2Cl)ccc1CNC1CCN(c2ccccn2)CC1 [Example 444, N-((6-(2-Chloro-3-(3-chloro-2-(3-methoxy-4-(((1-(pyridin-2-yl)piperidin-4-yl)amino)methyl)phenyl)pyridin-4-yl)phenyl)-2-methoxypyridin-3-yl)methyl)-1-(pyridin-2-yl)piperidin-4-amine] | ≥ 10000
COc1cc(-c2nccc(-c3cccc(-c4ccc(CN5CC6(CNC6)C5)c(OC)n4)c3Cl)c2Cl)ccc1CN1CC2(CNC(=O)C2)C1 [Example 520, 2-(4-(4-(3-(5-((2,6-Diazaspiro[3.3]heptan-2-yl)methyl)-6-methoxypyridin-2-yl)-2-chlorophenyl)-3-chloropyridin-2-yl)-2-methoxybenzyl)-2,6-diazaspiro[3.4]octan-7-one] | 66.6
COc1cc(-c2nccc(-c3cccc(-c4ccc(CNC5CCN(C(=O)C(C)C)CC5)c(OC)n4)c3Cl)c2Cl)ccc1CNC1CCN(C(C)=O)CC1 [Example 382, 1-(4-(((6-(3-(2-(4-(((1-acetylpiperidin-4-yl)amino)methyl)-3-methoxyphenyl)-3-chloropyridin-4-yl)-2-chlorophenyl)-2-methoxypyridin-3-yl)methyl)amino)piperidin-1-yl)-2-methylpropan-1-one] | 15.3
CNCc1ccc(-c2ccnc(-c3cccc4c3CCC[C@@H]4Nc3nc(OC)c(CNC)cc3C(F)(F)F)c2Cl)nc1OC [Example 732, (S)—N-(5-(3′-Chloro-6-methoxy-5-((methylamino)methyl)-[2,4′-bipyridin]-2′-yl)-1,2,3,4-tetrahydronaphthalen-1-yl)-6-methoxy-5-((methylamino)methyl)-3-(trifluoromethyl)pyridin-2-amine] | ≥ 10000
COc1cc(-c2nccc(-c3cccc(-c4ccc(CNC5CCN(C(C)=O)CC5)c(OC)n4)c3Cl)c2Cl)ccc1CNC1CC2(COC2)C1 [Example 379, 1-(4-(((6-(3-(2-(4-(((2-Oxaspiro[3.3]heptan-6-yl)amino)methyl)-3-methoxyphenyl)-3-chloropyridin-4-yl)-2-chlorophenyl)-2-methoxypyridin-3-yl)methyl)amino)piperidin-1-yl)ethan-1-one] | 45.3
COc1cc(-c2nccc(-c3cccc(-c4ccc(CNC[C@@H]5CCC(=O)N5)c(OC)n4)c3Cl)c2Cl)ccc1CNC[C@@H]1CCC(=O)N1 [Cmpd 8, (S)-5-((((6-(2-chloro-3-(3-chloro-2-(3-methoxy-4-(((((S)-5-oxopyrrolidin-2-yl)methyl)amino)methyl)phenyl)pyridin-4-yl)phenyl)-2-methoxypyridin-3-yl)methyl)amino)methyl)pyrrolidin-2-one] | 15
COc1cc(-c2nccc(-c3cccc(-c4ccc(CNC5CCN(C(C)=O)CC5)c(OC)n4)c3Cl)c2Cl)ccc1CN1CC2(CC(C(=O)O)C2)C1 [Example 243, 2-(4-(4-(3-(5-(((1-acetylpiperidin-4-yl)amino)methyl)-6-methoxypyridin-2-yl)-2-chlorophenyl)-3-chloropyridin-2-yl)-2-methoxybenzyl)-2-azaspiro[3.3]heptane-6-carboxylic acid] | 104
COc1cc(-c2nccc(-c3cccc(-c4ccc(CNC[C@@H]5CCC(=O)N5)c(OC)n4)c3Cl)c2Cl)cc2c1CCN(CC(C)(C)O)C2 [Cmpd 45, (S)-5-((((6-(2-chloro-3-(3-chloro-2-(2-(2-hydroxy-2-methylpropyl)-5-methoxy-1,2,3,4-tetrahydroisoquinolin-7-yl)pyridin-4-yl)phenyl)-2-methoxypyridin-3-yl)methyl)amino)methyl)pyrrolidin-2-one] | 892
COc1cc(-c2nccc(-c3cccc(-c4cc(Cl)c(CNC[C@@H]5CCC(=O)N5)c(OC)n4)c3Cl)c2Cl)ccc1CN(C)C[C@H](C)O [Cmpd 71, (S)-5-((((4-chloro-6-(2-chloro-3-(3-chloro-2-(4-((((S)-2-hydroxypropyl)(methyl)amino)methyl)-3-methoxyphenyl)pyridin-4-yl)phenyl)-2-methoxypyridin-3-yl)methyl)amino)methyl)pyrrolidin-2-one] | 30.6
COc1cc(-c2nccc(-c3cccc(-c4ccc5c(CNC[C@@H]6CCCO6)cn(C)c5n4)c3Cl)c2Cl)ccc1CNC[C@@H]1CCC(=O)N1 [Cmpd 93, (S)-5-(((4-(3-chloro-4-(2-chloro-3-(1-methyl-3-(((((S)-tetrahydrofuran-2-yl)methyl)amino)methyl)-1H-pyrrolo[2,3-b]pyridin-6-yl)phenyl)pyridin-2-yl)-2-methoxybenzyl)amino)methyl)pyrrolidin-2-one] | 44.2
COc1nc(-c2cccc(-c3ccnc(-c4cc(OC)c5nc(CN[C@H]6CC[C@H](O)CC6)cn5c4)c3Cl)c2Cl)ccc1CNC[C@@H]1CCC(=O)N1 [Example 384, (S)-5-((((6-(2-Chloro-3-(3-chloro-2-(2-((((1r,4r)-4-hydroxycyclohexyl)amino)methyl)-8-methoxyimidazo[1,2-a]pyridin-6-yl)pyridin-4-yl)phenyl)-2-methoxypyridin-3-yl)methyl)amino)methyl)pyrrolidin-2-one] | 70
COc1cc(-c2nccc(-c3cccc(-c4ccc(CNC[C@@H]5CCC(=O)N5)c(OC)n4)c3Cl)c2Cl)ccc1CN1CC[C@H](C(=O)O)C1 [Cmpd 77, (S)-1-(4-(3-chloro-4-(2-chloro-3-(6-methoxy-5-(((((S)-5-oxopyrrolidin-2-yl)methyl)amino)methyl)pyridin-2-yl)phenyl)pyridin-2-yl)-2-methoxybenzyl)pyrrolidine-3-carboxylic acid] | 105
COc1cc(-c2ccnc(-c3cccc(-c4ccc(CNC[C@@H]5CCC(=O)N5)c(OC)n4)c3Cl)c2Cl)ccc1CNC[C@@H]1CCC(=O)N1 [Example 624, (S)-5-(((4-(3-Chloro-2-(2-chloro-3-(6-methoxy-5-(((((S)-5-oxopyrrolidin-2-yl)methyl)-amino)methyl)pyridin-2-yl)phenyl)pyridin-4-yl)-2-methoxybenzyl)-amino)methyl)pyrrolidin-2-one] | 16.7
COc1cc(-c2nccc(-c3cccc(NC(=O)c4ccc(CNC[C@@H]5CCC(=O)N5)cn4)c3C)c2Cl)ccc1CNCCO [Example 750, (S)—N-(3-(3-Chloro-2-(4-(((2-hydroxyethyl)amino)methyl)-3-methoxyphenyl)pyridin-4-yl)-2-methylphenyl)-5-((((5-oxopyrrolidin-2-yl)methyl)amino)methyl)picolinamide] | 703
COc1cc(-c2nccc(-c3cccc(-c4ccc(CNC5CC6(COC6)C5)c(OC)n4)c3C(F)(F)F)c2Cl)ccc1CNC1CC2(COC2)C1 (stereo not shown) [Example 604, N-((6-(3-(2-(4-(((2-Oxaspiro[3.3]heptan-6-yl)amino)methyl)-3-methoxyphenyl)-3-chloropyridin-4-yl)-2-(trifluoromethyl)phenyl)-2-methoxypyridin-3-yl)methyl)-2-oxaspiro[3.3]heptan-6-amine] | ≥ 10000
COc1cc(-c2nccc(-c3cccc(-c4ccc5c(CN(C)C6CCN(C(C)=O)CC6)cn(C)c5n4)c3Cl)c2Cl)ccc1CNC1CCN(C(C)=O)CC1 [Example 264, 1-(4-((4-(4-(3-(3-(((1-acetylpiperidin-4-yl)(methyl)amino)methyl)-1-methyl-1H-pyrrolo[2,3-b]pyridin-6-yl)-2-chlorophenyl)-3-chloropyridin-2-yl)-2-methoxybenzyl)amino)piperidin-1-yl)ethan-1-one] | 47.7
